The record followed here is patent US9346810B2, “Pyrrolopyrimidine compounds and uses thereof” (HUTCHISON MEDIPHARMA LIMITED, priority 2010, dated 2016).

For assay [1], the target named is Recombinant human JAK2 catalytic domain (Homo sapiens (Human), UniProt O60674). Description: JAK2 kinase assay (Z'-LYTE, Tyr 6 Peptide). The assay is classed as biochemical. As for the experimental part: (§1) JAK1/2/3 kinase assay are performed in vitro using Kit-Tyr 6 Peptide (Invitrogen, Cat. No. PV4122). TYK2 kinase assay are performed in vitro using Z′-LYTE™ Kinase Assay Kit-Tyr 3 Peptide (Invitrogen, Cat. No. PV3192). […] All compounds are initially tested at 8 different concentrations (1 μM down to 0.0003 μM) using a 1:3 serial dilution scheme.
Sequence of Recombinant human JAK2 catalytic domain (O60674 849-1124): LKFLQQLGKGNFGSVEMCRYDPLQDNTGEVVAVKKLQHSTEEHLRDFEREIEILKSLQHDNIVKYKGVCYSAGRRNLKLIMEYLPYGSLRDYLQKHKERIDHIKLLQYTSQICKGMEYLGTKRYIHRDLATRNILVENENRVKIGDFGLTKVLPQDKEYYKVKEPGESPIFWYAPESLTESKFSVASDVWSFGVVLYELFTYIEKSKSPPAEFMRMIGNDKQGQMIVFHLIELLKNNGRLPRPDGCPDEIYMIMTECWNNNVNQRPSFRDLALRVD

Assay [2] has as its target Recombinant human JAK3 catalytic domain (Homo sapiens (Human), UniProt P52333). The assay can be described thus: JAK3 kinase assay (Z'-LYTE, Tyr 6 Peptide). It counts as biochemical. As for the experimental part:
as §1

Setting [3] is: read-out: IC50 in JAK2 kinase assay.
Where [4] appears, read: read-out: IC50 in JAK3 kinase assay.

Like-named read-outs stand apart in the source and are kept apart here.

Sequence of Recombinant human JAK3 catalytic domain (P52333 822-1111): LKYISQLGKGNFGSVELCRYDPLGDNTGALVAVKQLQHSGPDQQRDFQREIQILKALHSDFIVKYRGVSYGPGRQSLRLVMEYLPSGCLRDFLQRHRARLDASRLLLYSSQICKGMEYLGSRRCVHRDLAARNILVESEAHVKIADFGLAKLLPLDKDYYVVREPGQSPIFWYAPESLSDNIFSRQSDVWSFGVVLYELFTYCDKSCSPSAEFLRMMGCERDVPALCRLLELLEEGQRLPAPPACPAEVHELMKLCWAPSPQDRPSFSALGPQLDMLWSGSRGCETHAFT

Regarding `Cc1cc(N(C)[C@@H]2CCN(c3ncnc4[nH]ccc34)C2)nc(Cl)c1C#N` [Compound 72], the IC50 in assay [1] (setting [3]) was 100 to 1000 nM.
As to `Cc1cc(Cl)nc(N(C)[C@@H]2CCN(c3ncnc4[nH]ccc34)C2)c1C#N` [Compound 73], the IC50 fell in the range of 100 to 1000 nM in assay [2] (setting [4]) and 1 to 100 nM in assay [1] (setting [3]).
Turning to `N#CCN(C1CCC1)[C@@H]1CCN(c2ncnc3[nH]ccc23)C1` [Compound 52], in assay [1] (setting [3]), the IC50 was 100 to 1000 nM.
On to `CN(c1ccc(C(=O)O)cn1)[C@@H]1CCN(c2ncnc3[nH]ccc23)C1` [Compound 170, (R)-6-((1-(7H-pyrrolo[2,3-d]pyrimidin-4-yl)pyrrolidin-3-yl)(methyl)amino)nicotinic acid], for which, in assay [1] (setting [3]), the IC50 lay within 100 to 1000 nM.
In the case of `CN(c1ncc(C#N)cc1Br)[C@@H]1CCN(c2ncnc3[nH]ccc23)C1` [Compound 99], the half-maximal inhibitory concentration (IC50) in assay [2] (setting [4]) is 100 to 1000 nM; in assay [1] (setting [3]), 1 to 100 nM.
With `CN(c1ncc(C#N)cc1F)[C@@H]1CCN(c2ncnc3[nH]ccc23)C1` [Compound 158], the IC50 in assay [1] (setting [3]) lay in the range of 100 to 1000 nM.
Regarding `CN(c1ncnc2ccccc12)[C@@H]1CCN(c2ncnc3[nH]ccc23)C1` [Compound 80], the figures for the IC50 in assay [2] (setting [4]) and in assay [1] (setting [3]) were 100 to 1000 nM and 1 to 100 nM, respectively.
As for `CN(c1ccc(C(=O)NCc2ccccc2)cc1F)[C@@H]1CCN(c2ncnc3[nH]ccc23)C1` [Compound 187], the IC50 was in the range of 100 to 1000 nM in assay [2] (setting [4]) and 1 to 100 nM in assay [1] (setting [3]).
In the case of `CN(c1ccc([N+](=O)[O-])cn1)[C@@H]1CCN(c2ncnc3[nH]ccc23)C1` [Compound 70], the IC50 in assay [2] (setting [4]) and in assay [1] (setting [3]) was 100 to 1000 nM each time.
In the case of `CCS(=O)(=O)Nc1ccc(N(C)[C@@H]2CCN(c3ncnc4[nH]ccc34)C2)nc1` [Compound 210, (R)—N-(6-((1-(7H-pyrrolo[2,3-d]pyrimidin-4-yl)pyrrolidin-3-yl)(methyl)amino)pyridin-3-yl)ethanesulfonamide], the IC50 in assay [2] was in the range of 100 to 1000 nM; in assay [1] it was 1 to 100 nM.
In the case of `N#CCN(C1CC1)[C@@H]1CCN(c2ncnc3[nH]ccc23)C1` [Compound 55], in assay [1] (setting [3]), the IC50 lay within 100 to 1000 nM.
As to `C#CCN(c1ccc(C#N)cc1F)[C@@H]1CCN(c2ncnc3[nH]ccc23)C1` [Compound 130], the IC50 in assay [1] (setting [3]) fell in the range of 100 to 1000 nM.
Take `C[C@H](NC(=O)c1ccc(N(C)[C@@H]2CCN(c3ncnc4[nH]ccc34)C2)c(F)c1)c1ccccc1` [Compound 182]: the IC50 in assay [2] (setting [4]) and in assay [1] (setting [3]) was 1 to 100 nM in each case.
For the compound `CN(c1ccc(C#N)c(Cl)n1)[C@@H]1CCN(c2ncnc3[nH]ccc23)C1` [Compound 90], in assay [1] (setting [3]), the half-maximal inhibitory concentration (IC50) is 100 to 1000 nM.
On to `CN(c1cnc(C#N)cn1)[C@@H]1CCN(c2ncnc3[nH]ccc23)C1` [Compound 84], for which the IC50 in assay [2] (setting [4]) is 100 to 1000 nM.
Take `CN(c1ccc(C#N)nn1)[C@@H]1CCN(c2ncnc3[nH]ccc23)C1` [Compound 60]: the IC50 in assay [2] (setting [4]) is 100 to 1000 nM; in assay [1] (setting [3]), 1 to 100 nM.
On the same counts, the results for `CN(c1cccc(C#N)n1)[C@@H]1CCN(c2ncnc3[nH]ccc23)C1` [Compound 91] are 100 to 1000 nM and 1 to 100 nM.
On the same counts, the results for `CCCN(c1ccc(C#N)cn1)[C@@H]1CCN(c2ncnc3[nH]ccc23)C1` [Compound 98] are 100 to 1000 nM and 1 to 100 nM.
On the same counts, the results for `COC[C@H](NC(=O)c1ccc(N(C)[C@@H]2CCN(c3ncnc4[nH]ccc34)C2)nc1)c1ccccc1` [Compound 209] are 1 to 100 nM and 1 to 100 nM.
`CN(c1ccc(C(=O)NC2CC2)cn1)[C@@H]1CCN(c2ncnc3[nH]ccc23)C1` [Compound 171, (R)-6-((1-(7H-pyrrolo[2,3-d]pyrimidin-4-yl)pyrrolidin-3-yl)(methyl)amino)-N-cyclopropylnicotinamide]: the figures for the 50% inhibitory concentration (IC50) in assay [2] (setting [4]) and in assay [1] (setting [3]) were 100 to 1000 nM and 1 to 100 nM, respectively.
With `CN(c1c(F)cc(C(=O)N[C@@H](CO)c2ccccc2)cc1F)[C@@H]1CCN(c2ncnc3[nH]ccc23)C1` [Compound 208], the IC50 in assay [2] (setting [4]) and in assay [1] (setting [3]) was 1 to 100 nM each time.
Regarding `C#CCN(c1c(F)cc(C#N)cc1F)[C@@H]1CCN(c2ncnc3[nH]ccc23)C1` [Compound 129], the IC50 in assay [2] (setting [4]) and in assay [1] (setting [3]) was 1 to 100 nM each time.
In the case of `CN(C(=O)Nc1ccc(C#N)cc1)[C@@H]1CCN(c2ncnc3[nH]ccc23)C1` [Compound 17], the IC50 in assay [2] (setting [4]) and in assay [1] (setting [3]) was 100 to 1000 nM in each case.
In the case of `N#Cc1ccc(N[C@@H]2CCN(c3ncnc4[nH]ccc34)C2)nc1` [Compound 81], the IC50 was 100 to 1000 nM in assay [2] (setting [4]) and 1 to 100 nM in assay [1] (setting [3]).
On the same counts, the results for `CN(c1ccc(C#N)cn1)[C@H]1CCN(c2ncnc3[nH]ccc23)C1` [Compound 102] are 100 to 1000 nM and 1 to 100 nM.
On the same counts, the results for `CN(c1ccc(C#N)cc1[N+](=O)[O-])[C@@H]1CCN(c2ncnc3[nH]ccc23)C1` [Compound 107] are 100 to 1000 nM and 100 to 1000 nM.
Regarding `CN(c1ccc2nn[nH]c2n1)[C@@H]1CCN(c2ncnc3[nH]ccc23)C1` [Compound 167, (R)—N-(1-(7H-pyrrolo[2,3-d]pyrimidin-4-yl)pyrrolidin-3-yl)-N-methyl-3H-[1,2,3]triazolo[4,5-b]pyridin-5-amine], in assay [1] (setting [3]), the IC50 was in the range of 100 to 1000 nM.
Consider `CN(c1ccc(C(=O)N[C@H](CO)c2ccccc2)cn1)[C@@H]1CCN(c2ncnc3[nH]ccc23)C1` [Compound 174], for which the figures for the IC50 in assay [2] (setting [4]) and in assay [1] (setting [3]) were 100 to 1000 nM and 1 to 100 nM, respectively.
With `N#Cc1ccc2c(c1)CCN2C1CCN(c2ncnc3[nH]ccc23)C1` (stereo not shown) [Compound 46], the IC50 in assay [1] (setting [3]) is 1 to 100 nM.
With `CN([C@@H]1CCN(c2ncnc3[nH]ccc23)C1)S(=O)(=O)c1cccc(C#N)c1` [Compound 10], the IC50 in assay [1] (setting [3]) lay within 100 to 1000 nM.
The same measure, in the same setting: in the case of `CN(c1ccc(NS(=O)(=O)c2ccc(F)cc2)cn1)[C@@H]1CCN(c2ncnc3[nH]ccc23)C1` [Compound 212] it was 1 to 100 nM.
`CN(c1ccc(C(=O)Nc2ccccc2F)cn1)[C@@H]1CCN(c2ncnc3[nH]ccc23)C1` [Compound 192]: the IC50 in assay [1] (setting [3]) was in the range of 1 to 100 nM.
Take `CN(c1nc(Cl)c(C#N)cc1F)[C@@H]1CCN(c2ncnc3[nH]ccc23)C1` [Compound 87]: the values for the IC50 in assay [2] (setting [4]) and in assay [1] (setting [3]) were 100 to 1000 nM and 1 to 100 nM, respectively.
As to `CCOc1cnc(N(C)[C@@H]2CCN(c3ncnc4[nH]ccc34)C2)cn1` [Compound 136], in assay [1] (setting [3]), the IC50 was 100 to 1000 nM.
Same read-out and setting: in the case of `CN(c1ccc(C(=O)Nc2cccc(Cl)c2)cc1F)[C@@H]1CCN(c2ncnc3[nH]ccc23)C1` [Compound 185] it was 1 to 100 nM; in that of `C#CCN(C1CCOC1)[C@@H]1CCN(c2ncnc3[nH]ccc23)C1` (stereo partly shown) [Compound 56], 100 to 1000 nM.
With `CN(c1ccc(C#N)c(Br)c1)[C@@H]1CCN(c2ncnc3[nH]ccc23)C1` [Compound 114], the IC50 in assay [2] (setting [4]) lay within 100 to 1000 nM; in assay [1] (setting [3]), 1 to 100 nM.
For `C#CCN(c1ccc(S(C)(=O)=O)cn1)[C@@H]1CCN(c2ncnc3[nH]ccc23)C1` [Compound 58], the IC50 in assay [1] (setting [3]) is 100 to 1000 nM.
Turning to `CN(c1ccc(C(=O)NC(CO)c2ccccc2Cl)cc1F)[C@@H]1CCN(c2ncnc3[nH]ccc23)C1` (stereo partly shown) [Compound 207], the IC50 in assay [1] (setting [3]) was in the range of 100 to 1000 nM.
`CN([C@@H]1CCN(c2ncnc3[nH]ccc23)C1)S(=O)(=O)c1cccc([N+](=O)[O-])c1` [Compound 12]: the IC50 in assay [1] (setting [3]) was 100 to 1000 nM.
On to `CN(c1ccc(C(=O)N[C@@H](CO)c2ccccc2)cc1F)[C@@H]1CCN(c2ncnc3[nH]ccc23)C1` [Compound 179], for which the IC50 in assay [1] (setting [3]) was in the range of 1 to 100 nM.
`CN(c1ccc(S(N)(=O)=O)cn1)[C@@H]1CCN(c2ncnc3[nH]ccc23)C1` [Compound 234]: in assay [2] (read-out: JAK3 (enzyme, IC50)), the IC50 worked out at 86.3 nM.
Take `CN(c1ncc(Br)cc1C#N)[C@@H]1CCN(c2ncnc3[nH]ccc23)C1` [Compound 89]: in assay [1] (setting [3]), the IC50 was in the range of 100 to 1000 nM.
For `CN(c1ccc(C(=O)NC(CO)c2ccc(Cl)cc2)cc1F)[C@@H]1CCN(c2ncnc3[nH]ccc23)C1` (stereo partly shown) [Compound 201], the IC50 in assay [1] (setting [3]) was in the range of 1 to 100 nM.
Same read-out and setting: in the case of `CN(c1ncc(C#N)cc1Cl)[C@@H]1CCN(c2ncnc3[nH]ccc23)C1` [Compound 83] it was 100 to 1000 nM; in that of `CN(c1ccc(-c2nn[nH]n2)cn1)[C@@H]1CCN(c2ncnc3[nH]ccc23)C1` [Compound 160, (R)—N-(1-(7H-pyrrolo[2,3-d]pyrimidin-4-yl)pyrrolidin-3-yl)-N-methyl-5-(2H-tetrazol-5-yl)pyridin-2-amine], 100 to 1000 nM; in that of `CN(c1c(F)cc(C#N)cc1F)[C@@H]1CCN(c2ncnc3[nH]ccc23)C1` [Compound 108], 100 to 1000 nM.
On to `CN(C(=O)CC(F)(F)F)[C@@H]1CCN(c2ncnc3[nH]ccc23)C1` [Compound 25], for which the IC50 in assay [2] (setting [4]) is 100 to 1000 nM.
`CN(c1ccc(C#N)cc1Br)[C@@H]1CCN(c2ncnc3[nH]ccc23)C1` [Compound 115]: in assay [1] (setting [3]), the IC50 fell in the range of 100 to 1000 nM.
Take `CN(C(=O)C1(C#N)CC1)[C@@H]1CCN(c2ncnc3[nH]ccc23)C1` [Compound 6]: in assay [1] (setting [3]), the IC50 was 100 to 1000 nM.
Same read-out and setting: in the case of `CN(c1ccc(C(=O)N[C@@H](CO)c2ccccc2)cn1)[C@@H]1CCN(c2ncnc3[nH]ccc23)C1` [Compound 176] it was 1 to 100 nM.
For the compound `CCCC(=O)N(C)[C@@H]1CCN(c2ncnc3[nH]ccc23)C1` [Compound 3], the IC50 in assay [1] (setting [3]) was in the range of 100 to 1000 nM.
As for `CN(C(=O)c1ccc(N(C)[C@@H]2CCN(c3ncnc4[nH]ccc34)C2)nc1)c1ccc(F)cc1` [Compound 178], the IC50 in assay [1] (setting [3]) is 100 to 1000 nM.
On to `CN(c1ccc(-c2cccs2)cn1)[C@@H]1CCN(c2ncnc3[nH]ccc23)C1` [Compound 147], for which, in assay [1] (setting [3]), the IC50 lay within 100 to 1000 nM.
Turning to `CN(c1ccc(Cl)nn1)[C@@H]1CCN(c2ncnc3[nH]ccc23)C1` [Compound 85], in assay [1] (setting [3]), the IC50 is 100 to 1000 nM.
With `Cc1cc(N(C)[C@@H]2CCN(c3ncnc4[nH]ccc34)C2)ncc1C#N` [Compound 157], the IC50 in assay [1] (setting [3]) lay in the range of 1 to 100 nM.
Still for that read-out and setting: in the case of `CC(C)S(=O)(=O)N(C)[C@@H]1CCN(c2ncnc3[nH]ccc23)C1` [Compound 49] it was 100 to 1000 nM.
For the compound `CN(C1CCCC1)[C@@H]1CCN(c2ncnc3[nH]ccc23)C1` [Compound 53], in assay [1] (setting [3]), the IC50 lay within 100 to 1000 nM.

For orientation: IC50 means the concentration that inhibits the measured activity by half.
